The values that follow come from PMC5127577, “Biochemical Characterization of Glutamate Racemase—A New Candidate Drug Target against Burkholderia cenocepacia Infections” (PLoS ONE, 2016).

The target of one experiment is GR from B. subtilis. As to conditions: cited from earlier work.
Experiment [1] deals with T1, B. cenocepacia J2315 glutamate racemase (BcGR) (Burkholderia cenocepacia, UniProt B4EEM8).
T1 sequence (B4EEM8 1-285): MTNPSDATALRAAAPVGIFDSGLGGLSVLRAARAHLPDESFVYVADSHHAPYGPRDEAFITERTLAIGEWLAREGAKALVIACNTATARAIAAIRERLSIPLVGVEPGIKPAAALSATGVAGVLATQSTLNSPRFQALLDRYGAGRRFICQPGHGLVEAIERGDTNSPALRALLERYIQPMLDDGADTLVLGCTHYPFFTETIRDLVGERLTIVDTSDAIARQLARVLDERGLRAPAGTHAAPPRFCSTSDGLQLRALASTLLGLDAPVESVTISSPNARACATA
The experiment in a line: BcGR enzymatic activity inhibition, spectrophotometric coupled assay (L-glutamate dehydrogenase/diaphorase). As to conditions: for BcGR inhibition in screening: compound 100 μM; for inhibitory effect in the presence of EDTA: excess of EDTA; for mode of inhibition: steady state kinetics, D-Glu 5–50 mM, compound 0–100 μM.

A further experiment addresses GR from B. anthracis. As to conditions: cited from earlier work.
In another experiment the test system is B. cenocepacia J2315. As to the kind of experiment: Minimal Inhibitory Concentration, 2-fold microdilution, resazurin method. The experiment is classed as cell-based, Burkholderia cenocepacia J2315. As to conditions: planktonic cells, 8 to 1024 μg/ml tested, two days 37°C.

Where two headings read alike, the source gives them in different places.

For the molecule `O=S(=O)(O)c1nc2ccccc2[nH]1` [1-H-benzimidazole-2-sulfonic acid, reference compound], the Ki on GR from B. subtilis was 9 µM. For the same molecule, the “BcGR inhibition in screening” value in experiment [1] (20 mM D-Glu) is given as “did not show any inhibition”.

`O=S(=O)(O)c1ccc(O)c(S(=O)(=O)O)c1` [4-hydroxybenzene-1,3-disulfonate, reference compound]: the inhibition constant Ki on GR from B. anthracis is 59 µM. For the same molecule, in experiment [1] (20 mM D-Glu), the “BcGR inhibition in screening” value is “did not show any inhibition”.

For the molecule `N[C@H](CC(Cc1ccccc1)C(=O)O)C(=O)O` (stereo partly drawn) [(2R)-2-amino-4-benzylpentanedioic, (2R)-2-amino-4-benzylpentanedioic acid, reference compound], the “BcGR inhibition in screening” value in experiment [1] (20 mM D-Glu) is listed as “did not show any inhibition”.

For the molecule `O=C(O)c1cccc(C(=O)O)n1` [dipicolinic acid], the Ki on GR from B. anthracis (non-competitive inhibitor) is 92 µM; at GR from B. subtilis it was 2700 µM. Further, half-maximal inhibition in experiment [1] (IC50) required 150 ± 30 µM.

As to “bis(2,4-bis(trichloromethyl)-1,3,5-triazapentadienato)-zinc(II) complex [(1)]”, the “MIC (concentration necessary to inhibit growth)” value against B. cenocepacia J2315 is recorded as “at least 512 μg/ml”. In addition, in experiment [1] (20 mM D-Glu, 37°C, pH 8.0), the IC50 stood at 35.3 ± 4.9 µM. For the same molecule, the “BcGR inhibition in screening” value in experiment [1] (20 mM D-Glu) was “almost completely inhibit”. In experiment [1], the “inhibitory effect in the presence of EDTA” value is “could be observed also in the presence of EDTA” and the mode of inhibition entry is reported as “non-competitive”.

As to “tris(2,4-bis(trichloromethyl)-1,3,5-triazapentadienate)-Mn(III) complex [(2)]”, in the experiment with B. cenocepacia J2315, the “MIC (concentration necessary to inhibit growth)” value is “at least 512 μg/ml”. The molecule also displayed an IC50 in experiment [1] (20 mM D-Glu, 37°C, pH 8.0) of 10 ± 0.8 µM. In addition, the “BcGR inhibition in screening” value in experiment [1] (20 mM D-Glu) is “almost completely inhibit”. In experiment [1], the “inhibitory effect in the presence of EDTA” value was “could be observed also in the presence of EDTA” and the mode of inhibition result was “non-competitive”.
